Measured values published in the supplement of paper PMC10307832.

Experiments:
Assay in all cases: relative viability (nuclei count vs DMSO), 5 days (fraction); higher = more cells survive
Bosutinib = compound: COc1cc(Nc2c(C#N)cnc3cc(OCCCN4CCN(C)CC4)c(OC)cc23)c(Cl)cc1Cl [Bosutinib]
Procedure, shortened: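 Only plates meeting two conditions passed: control CV below 25% and at least one doubling. Lung cancer cell lines, kept overnight at 37 °C in 1536-well plates, were pinned with five library-drug doses (not always all listed) √10 apart on vehicle-anchored plates and grown 5 days without medium change. A one-step fix, permeabilisation and Hoechst stain preceded 4× imaging and MetaXpress nuclear counting. Viability equals treated-well nuclei divided by vehicle-well nuclei, as the median over plates.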

Bosutinib + Vorinostat = compound: COc1cc(Nc2c(C#N)cnc3cc(OCCCN4CCN(C)CC4)c(OC)cc23)c(Cl)cc1Cl [Bosutinib] + O=C(CCCCCCC(=O)Nc1ccccc1)NO [Vorinostat] (partner 1 µM)
Procedure, shortened: (§1)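 Relative viability is defined as nuclei in treated wells over nuclei in vehicle wells. Duplicate plates were run and medians reported. Lung cancer cell lines in 1536-well plates were dosed by pin tool one day after seeding, with one drug or with a fixed anchor-drug dose plus five library-drug doses (not always all listed) in √10 steps, and nuclei were counted after 5 days.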

Bosutinib + Pemetrexed = compound: COc1cc(Nc2c(C#N)cnc3cc(OCCCN4CCN(C)CC4)c(OC)cc23)c(Cl)cc1Cl [Bosutinib] + Nc1nc2[nH]cc(CCc3ccc(C(=O)N[C@@H](CCC(=O)O)C(=O)O)cc3)c2c(=O)[nH]1 [Pemetrexed] (partner 0.2 µM)
Procedure, shortened: as §1

Bosutinib + Olaparib = compound: COc1cc(Nc2c(C#N)cnc3cc(OCCCN4CCN(C)CC4)c(OC)cc23)c(Cl)cc1Cl [Bosutinib] + O=C(c1cc(Cc2n[nH]c(=O)c3ccccc23)ccc1F)N1CCN(C(=O)C2CC2)CC1 [Olaparib] (partner 8 µM)
Procedure, shortened: as §1

Bosutinib + Tozasertib = compound: COc1cc(Nc2c(C#N)cnc3cc(OCCCN4CCN(C)CC4)c(OC)cc23)c(Cl)cc1Cl [Bosutinib] + Cc1cc(Nc2cc(N3CCN(C)CC3)nc(Sc3ccc(NC(=O)C4CC4)cc3)n2)n[nH]1 [Tozasertib] (partner 0.1 µM)
Procedure, shortened: as §1

Bosutinib + Decitabine = compound: COc1cc(Nc2c(C#N)cnc3cc(OCCCN4CCN(C)CC4)c(OC)cc23)c(Cl)cc1Cl [Bosutinib] + Nc1ncn([C@H]2C[C@H](O)[C@@H](CO)O2)c(=O)n1 [Decitabine] (partner 2 µM)
Procedure, shortened: as §1

Bosutinib + Trametinib = compound: COc1cc(Nc2c(C#N)cnc3cc(OCCCN4CCN(C)CC4)c(OC)cc23)c(Cl)cc1Cl [Bosutinib] + CC(=O)Nc1cccc(-n2c(=O)n(C3CC3)c(=O)c3c(Nc4ccc(I)cc4F)n(C)c(=O)c(C)c32)c1 [Trametinib] (partner 0.02 µM)
Procedure, shortened: as §1

Bosutinib + Palbociclib = compound: COc1cc(Nc2c(C#N)cnc3cc(OCCCN4CCN(C)CC4)c(OC)cc23)c(Cl)cc1Cl [Bosutinib] + CC(=O)c1c(C)c2cnc(Nc3ccc(N4CCNCC4)cn3)nc2n(C2CCCC2)c1=O [Palbociclib] (partner 0.5 µM)
Procedure, shortened: as §1

Bosutinib + AZD7762 = compound: COc1cc(Nc2c(C#N)cnc3cc(OCCCN4CCN(C)CC4)c(OC)cc23)c(Cl)cc1Cl [Bosutinib] + NC(=O)Nc1cc(-c2cccc(F)c2)sc1C(=O)N[C@H]1CCCNC1 [AZD7762] (partner 0.2 µM)
Procedure, shortened: as §1

Bosutinib + OSI-027 = compound: COc1cc(Nc2c(C#N)cnc3cc(OCCCN4CCN(C)CC4)c(OC)cc23)c(Cl)cc1Cl [Bosutinib] + COc1cccc2cc(-c3nc([C@H]4CC[C@H](C(=O)O)CC4)n4ncnc(N)c34)[nH]c12 [OSI-027] (partner 0.5 µM)
Procedure, shortened: as §1

Bosutinib + Bortezomib = compound: COc1cc(Nc2c(C#N)cnc3cc(OCCCN4CCN(C)CC4)c(OC)cc23)c(Cl)cc1Cl [Bosutinib] + CC(C)C[C@H](NC(=O)[C@H](Cc1ccccc1)NC(=O)c1cnccn1)B(O)O [Bortezomib] (partner 0.002 µM)
Procedure, shortened: as §1

Bosutinib + Pictilisib = compound: COc1cc(Nc2c(C#N)cnc3cc(OCCCN4CCN(C)CC4)c(OC)cc23)c(Cl)cc1Cl [Bosutinib] + CS(=O)(=O)N1CCN(Cc2cc3nc(-c4cccc5[nH]ncc45)nc(N4CCOCC4)c3s2)CC1 [Pictilisib] (partner 1 µM)
Procedure, shortened: as §1

Bosutinib + Navitoclax = compound: COc1cc(Nc2c(C#N)cnc3cc(OCCCN4CCN(C)CC4)c(OC)cc23)c(Cl)cc1Cl [Bosutinib] + CC1(C)CCC(c2ccc(Cl)cc2)=C(CN2CCN(c3ccc(C(=O)NS(=O)(=O)c4ccc(N[C@H](CCN5CCOCC5)CSc5ccccc5)c(S(=O)(=O)C(F)(F)F)c4)cc3)CC2)C1 [Navitoclax] (partner 0.5 µM)
Procedure, shortened: as §1

Bosutinib + Foretinib = compound: COc1cc(Nc2c(C#N)cnc3cc(OCCCN4CCN(C)CC4)c(OC)cc23)c(Cl)cc1Cl [Bosutinib] + COc1cc2c(Oc3ccc(NC(=O)C4(C(=O)Nc5ccc(F)cc5)CC4)cc3F)ccnc2cc1OCCCN1CCOCC1 [Foretinib] (partner 0.25 µM)
Procedure, shortened: as §1

Bosutinib + Lapatinib = compound: COc1cc(Nc2c(C#N)cnc3cc(OCCCN4CCN(C)CC4)c(OC)cc23)c(Cl)cc1Cl [Bosutinib] + CS(=O)(=O)CCNCc1ccc(-c2ccc3ncnc(Nc4ccc(OCc5cccc(F)c5)c(Cl)c4)c3c2)o1 [Lapatinib] (partner 2 µM)
Procedure, shortened: as §1

Bosutinib + Crizotinib = compound: COc1cc(Nc2c(C#N)cnc3cc(OCCCN4CCN(C)CC4)c(OC)cc23)c(Cl)cc1Cl [Bosutinib] + C[C@@H](Oc1cc(-c2cnn(C3CCNCC3)c2)cnc1N)c1c(Cl)ccc(F)c1Cl [Crizotinib] (partner 1 µM)
Procedure, shortened: as §1

Bosutinib + Linsitinib = compound: COc1cc(Nc2c(C#N)cnc3cc(OCCCN4CCN(C)CC4)c(OC)cc23)c(Cl)cc1Cl [Bosutinib] + C[C@]1(O)C[C@@H](c2nc(-c3ccc4ccc(-c5ccccc5)nc4c3)c3c(N)nccn32)C1 [Linsitinib] (partner 1 µM)
Procedure, shortened: as §1

Bosutinib + Alpelisib = compound: COc1cc(Nc2c(C#N)cnc3cc(OCCCN4CCN(C)CC4)c(OC)cc23)c(Cl)cc1Cl [Bosutinib] + Cc1nc(NC(=O)N2CCC[C@H]2C(N)=O)sc1-c1ccnc(C(C)(C)C(F)(F)F)c1 [Alpelisib] (partner 2 µM)
Procedure, shortened: as §1

In the case of NCI-H1648, the relative viability (Bosutinib; 0.01 µM) is reported as 1.15, the relative viability (Bosutinib; 0.03162 µM) is reported as 0.851 and the relative viability (Bosutinib; 0.1 µM) is reported as 0.997. The relative viability (Bosutinib; 1 µM) was 0.931, the relative viability (Bosutinib + Vorinostat; first compound 0.01 µM) was 0.389 and the relative viability (Bosutinib + Vorinostat; first compound 0.03162 µM) was 0.471. For the same cell line, the relative viability (Bosutinib + Vorinostat; first compound 0.1 µM) was 0.541, the relative viability (Bosutinib + Vorinostat; first compound 1 µM) was 0.511 and the relative viability (Bosutinib + Pemetrexed; first compound 0.01 µM) was 0.728. For the same cell line, the relative viability (Bosutinib + Pemetrexed; first compound 0.03162 µM) was 0.824, the relative viability (Bosutinib + Pemetrexed; first compound 0.1 µM) was 0.744 and the relative viability (Bosutinib + Pemetrexed; first compound 1 µM) was 0.813. The relative viability (Bosutinib + Olaparib; first compound 0.01 µM) was 0.953, the relative viability (Bosutinib + Olaparib; first compound 0.03162 µM) was 0.703 and the relative viability (Bosutinib + Olaparib; first compound 0.1 µM) was 1.01. For the same cell line, the relative viability (Bosutinib + Olaparib; first compound 1 µM) was 0.77, the relative viability (Bosutinib + Tozasertib; first compound 0.01 µM) was 0.594 and the relative viability (Bosutinib + Tozasertib; first compound 0.03162 µM) was 0.447. For the same cell line, the relative viability (Bosutinib + Tozasertib; first compound 0.1 µM) was 0.396, the relative viability (Bosutinib + Tozasertib; first compound 1 µM) was 0.462 and the relative viability (Bosutinib + Decitabine; first compound 0.01 µM) was 0.471. For the same cell line, the relative viability (Bosutinib + Decitabine; first compound 0.03162 µM) was 0.622, the relative viability (Bosutinib + Decitabine; first compound 0.1 µM) was 0.662 and the relative viability (Bosutinib + Decitabine; first compound 1 µM) was 0.675. The relative viability (Bosutinib + Trametinib; first compound 0.01 µM) was 0.548, the relative viability (Bosutinib + Trametinib; first compound 0.03162 µM) was 0.501 and the relative viability (Bosutinib + Trametinib; first compound 0.1 µM) was 0.505. For the same cell line, the relative viability (Bosutinib + Trametinib; first compound 1 µM) was 0.421, the relative viability (Bosutinib + Palbociclib; first compound 0.01 µM) was 0.297 and the relative viability (Bosutinib + Palbociclib; first compound 0.03162 µM) was 0.278. It also gave a relative viability (Bosutinib + Palbociclib; first compound 0.1 µM) of 0.26, a relative viability (Bosutinib + Palbociclib; first compound 1 µM) of 0.341 and a relative viability (Bosutinib + AZD7762; first compound 0.01 µM) of 0.659. It also gave a relative viability (Bosutinib + AZD7762; first compound 0.03162 µM) of 0.639, a relative viability (Bosutinib + AZD7762; first compound 0.1 µM) of 0.838 and a relative viability (Bosutinib + AZD7762; first compound 1 µM) of 0.61. It also gave a relative viability (Bosutinib + OSI-027; first compound 0.01 µM) of 0.286, a relative viability (Bosutinib + OSI-027; first compound 0.03162 µM) of 0.251 and a relative viability (Bosutinib + OSI-027; first compound 0.1 µM) of 0.261. For the same cell line, the relative viability (Bosutinib + OSI-027; first compound 1 µM) was 0.245.

Cell Line Calu-6 has a relative viability (Bosutinib; 0.01 µM) of 1.01, a relative viability (Bosutinib; 0.03162 µM) of 1.02 and a relative viability (Bosutinib; 0.1 µM) of 0.976. It also gave a relative viability (Bosutinib; 1 µM) of 0.837, a relative viability (Bosutinib + Bortezomib; first compound 0.01 µM) of 1.01 and a relative viability (Bosutinib + Bortezomib; first compound 0.03162 µM) of 0.954. For the same cell line, the relative viability (Bosutinib + Bortezomib; first compound 0.1 µM) was 1.02, the relative viability (Bosutinib + Bortezomib; first compound 1 µM) was 0.905 and the relative viability (Bosutinib + Pictilisib; first compound 0.01 µM) was 0.937. It also gave a relative viability (Bosutinib + Pictilisib; first compound 0.03162 µM) of 0.923, a relative viability (Bosutinib + Pictilisib; first compound 0.1 µM) of 0.867 and a relative viability (Bosutinib + Pictilisib; first compound 1 µM) of 0.834. The relative viability (Bosutinib + Navitoclax; first compound 0.01 µM) was 0.814, the relative viability (Bosutinib + Navitoclax; first compound 0.03162 µM) was 0.801 and the relative viability (Bosutinib + Navitoclax; first compound 0.1 µM) was 0.757. The relative viability (Bosutinib + Navitoclax; first compound 1 µM) was 0.821, the relative viability (Bosutinib + Foretinib; first compound 0.01 µM) was 0.927 and the relative viability (Bosutinib + Foretinib; first compound 0.03162 µM) was 0.888. It also gave a relative viability (Bosutinib + Foretinib; first compound 0.1 µM) of 0.932, a relative viability (Bosutinib + Foretinib; first compound 1 µM) of 0.772 and a relative viability (Bosutinib + Olaparib; first compound 0.01 µM) of 0.596. The relative viability (Bosutinib + Olaparib; first compound 0.03162 µM) was 0.561, the relative viability (Bosutinib + Olaparib; first compound 0.1 µM) was 0.598 and the relative viability (Bosutinib + Olaparib; first compound 1 µM) was 0.472. It also gave a relative viability (Bosutinib + Lapatinib; first compound 0.01 µM) of 1.15, a relative viability (Bosutinib + Lapatinib; first compound 0.03162 µM) of 1.14 and a relative viability (Bosutinib + Lapatinib; first compound 0.1 µM) of 1.11. It also gave a relative viability (Bosutinib + Lapatinib; first compound 1 µM) of 0.893, a relative viability (Bosutinib + Crizotinib; first compound 0.01 µM) of 0.747 and a relative viability (Bosutinib + Crizotinib; first compound 0.03162 µM) of 0.796. It also gave a relative viability (Bosutinib + Crizotinib; first compound 0.1 µM) of 0.798, a relative viability (Bosutinib + Crizotinib; first compound 1 µM) of 0.788 and a relative viability (Bosutinib + Linsitinib; first compound 0.01 µM) of 1.05. It also gave a relative viability (Bosutinib + Linsitinib; first compound 0.03162 µM) of 0.957, a relative viability (Bosutinib + Linsitinib; first compound 0.1 µM) of 0.96 and a relative viability (Bosutinib + Linsitinib; first compound 1 µM) of 0.794. The relative viability (Bosutinib + Alpelisib; first compound 0.01 µM) was 0.927, the relative viability (Bosutinib + Alpelisib; first compound 0.03162 µM) was 1.07 and the relative viability (Bosutinib + Alpelisib; first compound 0.1 µM) was 0.958. For the same cell line, the relative viability (Bosutinib + Alpelisib; first compound 1 µM) was 0.824.
